Measurements reported in ChEMBL document CHEMBL3045446, “In vitro antimicrobial and antimycobacterial activity of some chalcones and their derivatives” (2013).
≈ marks a conversion by molar mass, not a printed value.

Key:
Format in all cases: functional
[1] = tested on: Mycobacterium tuberculosis; assay: Antituberculosis activity against Mycobacterium tuberculosis H37Rv assessed as growth inhibition after 12 to 28 days by L-J MIC method; conditions: for MIC: Mycobacterium tuberculosis, H37Rv
Candida albicans [2] = assay: Antimicrobial activity against Candida albicans MTCC 183 assessed as growth inhibition after 48 hr by agar streak dilution method; conditions: MTCC 183, 48 h
Aspergillus clavatus [3] = assay: Antimicrobial activity against Aspergillus clavatus MTCC 1323 assessed as growth inhibition after 48 hr by agar streak dilution method; conditions: MTCC 1323, 48 h
Aspergillus fumigatus [4] = assay: Antimicrobial activity against Aspergillus fumigatus MTCC 343 assessed as growth inhibition after 48 hr by agar streak dilution method; conditions: MTCC 343, 48 h
Aspergillus niger [5] = assay: Antimicrobial activity against Aspergillus niger MTCC 282 assessed as growth inhibition after 48 hr by agar streak dilution method; conditions: MTCC 282, 48 h
Shigella flexneri [6] = assay: Antimicrobial activity against Shigella flexneri MTCC1457 assessed as growth inhibition after 24 hr by agar streak dilution method; conditions: MTCC1457, 24 h
Proteus vulgaris [7] = assay: Antimicrobial activity against Proteus vulgaris MTCC 1771 assessed as growth inhibition after 24 hr by agar streak dilution method; conditions: MTCC 1771, 24 h
Salmonella typhi [8] = assay: Antimicrobial activity against Salmonella enterica subsp. enterica serovar Typhi MTCC 733 assessed as growth inhibition after 24 hr by agar streak dilution method; conditions: MTCC 733, 24 h
Klebsiella pneumoniae [9] = assay: Antimicrobial activity against Klebsiella pneumoniae MTCC 109 assessed as growth inhibition after 24 hr by agar streak dilution method; conditions: MTCC 109, 24 h
Pseudomonas aeruginosa [10] = assay: Antimicrobial activity against Pseudomonas aeruginosa MTCC 741 assessed as growth inhibition after 24 hr by agar streak dilution method; conditions: MTCC 741, 24 h
Escherichia coli [11] = assay: Antimicrobial activity against Escherichia coli MTCC 739 assessed as growth inhibition after 24 hr by agar streak dilution method; conditions: MTCC 739, 24 h
Bacillus cereus [12] = assay: Antimicrobial activity against Bacillus cereus MTCC 430 assessed as growth inhibition after 24 hr by agar streak dilution method; conditions: MTCC 430, 24 h
Staphylococcus aureus [13] = assay: Antimicrobial activity against Staphylococcus aureus MTCC 96 assessed as growth inhibition after 24 hr by agar streak dilution method; conditions: MTCC 96, 24 h
Candida albicans [14] = assay: Antimicrobial activity against Candida albicans MTCC 183 assessed as diameter of growth inhibition zone after 48 hr; also: test concentration or dose not given here
Aspergillus clavatus [15] = assay: Antimicrobial activity against Aspergillus clavatus MTCC 1323 assessed as diameter of growth inhibition zone after 48 hr; also: test concentration or dose not given here
Aspergillus fumigatus [16] = assay: Antimicrobial activity against Aspergillus fumigatus MTCC 343 assessed as diameter of growth inhibition zone after 48 hr; also: test concentration or dose not given here
Aspergillus niger [17] = assay: Antimicrobial activity against Aspergillus niger MTCC 282 assessed as diameter of growth inhibition zone after 48 hr; also: test concentration or dose not given here
Shigella flexneri [18] = assay: Antimicrobial activity against Shigella flexneri MTCC1457 assessed as diameter of growth inhibition zone after 24 hr
Proteus vulgaris [19] = assay: Antimicrobial activity against Proteus vulgaris MTCC 1771 assessed as diameter of growth inhibition zone after 24 hr
Salmonella typhi [20] = assay: Antimicrobial activity against Salmonella enterica subsp. enterica serovar Typhi MTCC 733 assessed as diameter of growth inhibition zone after 24 hr
Klebsiella pneumoniae [21] = assay: Antimicrobial activity against Klebsiella pneumoniae MTCC 109 assessed as diameter of growth inhibition zone after 24 hr; also: test concentration or dose not given here
Pseudomonas aeruginosa [22] = assay: Antimicrobial activity against Pseudomonas aeruginosa MTCC 741 assessed as diameter of growth inhibition zone after 24 hr
Escherichia coli [23] = assay: Antimicrobial activity against Escherichia coli MTCC 739 assessed as diameter of growth inhibition zone after 24 hr; also: test concentration or dose not given here
Bacillus cereus [24] = assay: Antimicrobial activity against Bacillus cereus MTCC 430 assessed as diameter of growth inhibition zone after 24 hr; also: test concentration or dose not given here
Staphylococcus aureus [25] = assay: Antimicrobial activity against Staphylococcus aureus MTCC 96 assessed as diameter of growth inhibition zone after 24 hr; also: test concentration or dose not given here

Compound	growth inhibition (GI) [1]	MIC [1]	MIC (Candida albicans [2])	MIC (Aspergillus clavatus [3])	MIC (Aspergillus fumigatus [4])	MIC (Aspergillus niger [5])	MIC (Shigella flexneri [6])	MIC (Proteus vulgaris [7])	MIC (Salmonella typhi [8])	MIC (Klebsiella pneumoniae [9])	MIC (Pseudomonas aeruginosa [10])	MIC (Escherichia coli [11])	MIC (Bacillus cereus [12])	MIC (Staphylococcus aureus [13])	diameter of the inhibition zone (DIZ) (Candida albicans [14])	diameter of the inhibition zone (DIZ) (Aspergillus clavatus [15])	diameter of the inhibition zone (DIZ) (Aspergillus fumigatus [16])	diameter of the inhibition zone (DIZ) (Aspergillus niger [17])	diameter of the inhibition zone (DIZ) (Shigella flexneri [18])	diameter of the inhibition zone (DIZ) (Proteus vulgaris [19])	other results
O=C(/C=C/c1ccc(O)cc1O)c1ccc(Nc2cc(=O)oc3ccccc23)cc1	95%	500 µg/mL (≈ 1250 µM)	100 µg/mL (≈ 250 µM)	25 µg/mL (≈ 62.6 µM)	25 µg/mL (≈ 62.6 µM)	50 µg/mL (≈ 125 µM)	100 µg/mL (≈ 250 µM)	25 µg/mL (≈ 62.6 µM)	25 µg/mL (≈ 62.6 µM)	25 µg/mL (≈ 62.6 µM)	25 µg/mL (≈ 62.6 µM)	50 µg/mL (≈ 125 µM)	100 µg/mL (≈ 250 µM)	50 µg/mL (≈ 125 µM)	16 mm	20 mm	22 mm	19 mm	17 mm	20 mm	diameter of the inhibition zone (DIZ) (Salmonella typhi [20]): 21 mm; diameter of the inhibition zone (DIZ) (Klebsiella pneumoniae [21]): 21 mm; diameter of the inhibition zone (DIZ) (Pseudomonas aeruginosa [22]): 19 mm; diameter of the inhibition zone (DIZ) (Escherichia coli [23]): 19 mm; diameter of the inhibition zone (DIZ) (Bacillus cereus [24]): 16 mm; diameter of the inhibition zone (DIZ) (Staphylococcus aureus [25]): 20 mm
N#Cc1c(-c2ccccc2)cc(-c2ccc(Nc3cc(=O)oc4ccccc34)cc2)nc1N	96%	500 µg/mL (≈ 1160 µM)	25 µg/mL (≈ 58.1 µM)	12.5 µg/mL (≈ 29 µM)	25 µg/mL (≈ 58.1 µM)	25 µg/mL (≈ 58.1 µM)	50 µg/mL (≈ 116 µM)	25 µg/mL (≈ 58.1 µM)	12.5 µg/mL (≈ 29 µM)	25 µg/mL (≈ 58.1 µM)	50 µg/mL (≈ 116 µM)	50 µg/mL (≈ 116 µM)	50 µg/mL (≈ 116 µM)	50 µg/mL (≈ 116 µM)	19 mm	23 mm	21 mm	21 mm	17 mm	19 mm	diameter of the inhibition zone (DIZ) (Salmonella typhi [20]): 23 mm; diameter of the inhibition zone (DIZ) (Klebsiella pneumoniae [21]): 21 mm; diameter of the inhibition zone (DIZ) (Pseudomonas aeruginosa [22]): 18 mm; diameter of the inhibition zone (DIZ) (Escherichia coli [23]): 19 mm; diameter of the inhibition zone (DIZ) (Bacillus cereus [24]): 19 mm; diameter of the inhibition zone (DIZ) (Staphylococcus aureus [25]): 17 mm
O=C(/C=C/c1ccc(F)cc1)c1ccc(Nc2cc(=O)oc3ccccc23)cc1	97%	250 µg/mL (≈ 649 µM)	100 µg/mL (≈ 259 µM)	100 µg/mL (≈ 259 µM)	50 µg/mL (≈ 130 µM)	50 µg/mL (≈ 130 µM)	100 µg/mL (≈ 259 µM)	50 µg/mL (≈ 130 µM)	100 µg/mL (≈ 259 µM)	100 µg/mL (≈ 259 µM)	100 µg/mL (≈ 259 µM)	50 µg/mL (≈ 130 µM)	25 µg/mL (≈ 64.9 µM)	50 µg/mL (≈ 130 µM)	13 mm	15 mm	19 mm	17 mm	14 mm	18 mm	diameter of the inhibition zone (DIZ) (Salmonella typhi [20]): 17 mm; diameter of the inhibition zone (DIZ) (Klebsiella pneumoniae [21]): 17 mm; diameter of the inhibition zone (DIZ) (Pseudomonas aeruginosa [22]): 16 mm; diameter of the inhibition zone (DIZ) (Escherichia coli [23]): 18 mm; diameter of the inhibition zone (DIZ) (Bacillus cereus [24]): 19 mm; diameter of the inhibition zone (DIZ) (Staphylococcus aureus [25]): 18 mm
Nc1nc(-c2ccc(Nc3cc(=O)oc4ccccc34)cc2)cc(-c2ccc(O)cc2O)n1	97%	200 µg/mL (≈ 456 µM)	25 µg/mL (≈ 57 µM)	6.25 µg/mL (≈ 14.3 µM)	12.5 µg/mL (≈ 28.5 µM)	12.5 µg/mL (≈ 28.5 µM)	12.5 µg/mL (≈ 28.5 µM)	3.12 µg/mL (≈ 7.12 µM)	12.5 µg/mL (≈ 28.5 µM)	6.25 µg/mL (≈ 14.3 µM)	12.5 µg/mL (≈ 28.5 µM)	12.5 µg/mL (≈ 28.5 µM)	12.5 µg/mL (≈ 28.5 µM)	12.5 µg/mL (≈ 28.5 µM)	21 mm	25 mm	25 mm	22 mm	23 mm	28 mm	diameter of the inhibition zone (DIZ) (Salmonella typhi [20]): 24 mm; diameter of the inhibition zone (DIZ) (Klebsiella pneumoniae [21]): 26 mm; diameter of the inhibition zone (DIZ) (Pseudomonas aeruginosa [22]): 23 mm; diameter of the inhibition zone (DIZ) (Escherichia coli [23]): 22 mm; diameter of the inhibition zone (DIZ) (Bacillus cereus [24]): 21 mm; diameter of the inhibition zone (DIZ) (Staphylococcus aureus [25]): 21 mm
